Results reported in patent publication US20190105264A1, “NON-INVASIVE OCULAR DRUG DELIVERY DEVICES” (Aciont Inc., priority 2017, published 2019).

How the values were obtained:
treated eyes (right eye) = details: rabbit, in vivo
[1] = Ocular toxicity study: body weight; details: 20 min, 12 weekly doses

- Typical conjunctival injection scores immediately after treatment (treated eyes (right eye); New Zealand White, 12 weeks): 1 or <1
- Ocular findings in treated eyes (conjunctival injection, discharge, corneal haze) (treated eyes (right eye)): transient and mild in nature
Structure (SMILES): C[C@@H]1C[C@H]2[C@@H]3CCC4=CC(=O)C=C[C@]4(C)[C@@]3(F)[C@@H](O)C[C@]2(C)[C@@]1(O)C(=O)COP(=O)(O)O [DSP, dexamethasone sodium phosphate]
- Body Weight ([1]; 15% DSP): 8% loss
- Body Weight ([1]; 25% DSP): 13% loss
